One series has as its system T.b.b 427–221. As to the kind of experiment: Live trypanosome fluorescence imaging. It is filed as cell-based, Trypanosoma brucei brucei. Particulars: 20 µM, 2 hours, washed, 1 hour compound-free medium. As for the experimental part: To explore the intracellular of distribution the coumarin-labeled derivative 30, parasites were incubated with 20 µM of 30 for 2 hours, washed once, and incubated in compound-free medium for 1 hour prior to microscopy. […] Although visualization of labeled merulin A in live cell imaging is an encouraging observation, further experiments are required to determine the precise localization and potential function of these compounds against T. brucei.
T.b.b 427–221 diluted to […] in complete HMI-9 medium were incubated with either 20 µM of compound 30, 20 µM of the free coumarin dye or 30 µM of compound 17 at 37°C for 2 hours. The parasites were then washed once with complete HMI-9 medium and incubated in compound-free complete HMI-9 medium for 1 additional hour. Parasites were directly mounted under coverslips and viewed with 100×-oil immersion on a Zeiss Laser Confocal microscope LSM 510 Meta.

The subject of another series is HeLa cells. The series can be described thus: HeLa toxicity screening assay (nuclei count by imaging, 17 h). The class given is cell-based, human. Particulars: for pIC50: Homo sapiens, HeLa. As for the experimental part: (§1) HeLa cells were plated at a density of 2,000 cells per well into two 384 well clear bottom plates (Costar 3712) in DMEM with 10% FBS. After 24 hours incubation at 37°C with 5% CO2 the cells were pinned with 200 nL of a two-fold serial dilution of merulin analogues. After 17 hours of treatment at 37°C in 5% CO2 the plates were fixed with 4% formaldehyde and washed with PBS (BioTek ELx405). After 10 minutes in PBS with 0.5% TritonX-100 each plate was washed and blocked with 2% Bovine Serum Albumin in PBS. Nuclei were stained with Hoechst 33342 then washed and placed in 40 µL of PBS with 0.1% sodium azide. Plates were imaged using the ImageXpress Micro epifluorescent scope (Molecular Devices). MetaXpress software was used to quantify total number of cells and IC50s were calculated using Prism (GraphPad).

The next series deals with T98-G cells. As to the kind of experiment: Glioblastoma toxicity screening assay (nuclei count by imaging, 17 h). It is filed as cell-based. Particulars: Homo sapiens, T98G; Figure 4. As for the experimental part:
as §1, with “T98-G cells (ATTC” for “HeLa cells were”, “T98-G cells (ATTC number: CRL-1690) were plated” for “HeLa cells were plated”

Series [1] concerns Trypanosoma brucei brucei strain 427–221. The series can be described thus: Trypanosome screening assay (CellTiter-Glo ATP bioluminescence, 48 h). It is filed as cell-based. Particulars: Trypanosoma brucei, read-out: T.b.b IC50. As for the experimental part: Trypanosoma brucei brucei strain 427–221 were grown at 37°C, 5% CO2 in HMI-9 medium containing 10% Fetal Bovine Serum, 10% Serum Plus (JRH Inc., Lenexa, KS,USA) and penicillin/streptomycin.
T.b.b. 427–221 were diluted to 2.10^4 per ml in complete HMI-9 medium and aliquoted in Greiner sterile 384-well flat white opaque culture plates using a WellMate cell dispenser from Matrix Tech. (Hudson, NH, USA). Test compounds were serially diluted in dimethyl sulfoxide (DMSO) and added to the assay plates with the robotic dispenser Biomek FXp liquid handler (Beckman Coulter). Thimerosal (2 µM final concentration) was added as a positive control and DMSO as a negative control (1% final concentration). Trypanosomes were incubated with compounds for 48 hours at 37°C with 5% CO2 before monitoring cell viability as previously described. Briefly, trypanosomes were lysed in the wells by adding 25 µL of CellTiter-GloTM (Promega). The lysed trypanosomes were placed on an orbital shaker at room temperature for 2 minutes. After lysis, the resulting ATP-bioluminescence was measured at room temperature using an Analyst HT plate reader (Molecular Devices). Percentage inhibition of parasite growth was calculated for each well as [1−(RLUx−RLU+)/(RLU−−RLU+)]*100 where RLUx, RLU+ and RLU− are respectively the Relative Light Units for each well, positive (thimerosal) and negative (DMSO) controls. A screening window coefficient, denoted Z′ factor, was used to evaluate the performance of the assay. The Z′ factor, calculated as 1−(3σc++3σc−)/(μc+−μc−) where σc+, σc−, μc+ and μc− are respectively the standard deviation and mean values of positive and negative controls, is reflective of the assay signal dynamic range and the data variation associated with signal measurement. IC50's were calculated using Prism (GraphPad).
On the technique in general: In ATP-based viability assays light output follows the ATP content of the culture.

For series [2] the following is noted: treatment of second stage infection (CNS infection); estimated; cited from earlier work.

For orientation: pIC50 means −log10 of the IC50, conventionally taken in molar units.

pIC50: −log10 of the molar value. Where two headings read alike, the source gives them in different places.

Turning to `CN(C)c1ccc2c(CC(=O)NCCNC(=O)CCc3ccccc3)cc(=O)oc2c1` [compound 31, N-(2-(2-(7-(dimethylamino)-2-oxo-2H-chromen-4-yl)acetamido)ethyl)-3-phenylpropanamide], the “fluorescence detected in live parasites” value with T.b.b 427–221 is on record as “No fluorescence was detected”.

Regarding `CN(C)c1ccc2c(CC(=O)O[C@@H]3CC[C@@]45C[C@@H]3OO[C@]4(C)C(=O)CCC5(C)C)cc(=O)oc2c1` [compound 30, (3S,4R,6aS,10aS)-7,7,10a-trimethyl-10-oxooctahydro-3H-3,6a-methanobenzo[c][1,2]dioxocin-4-yl 2-(7-(dimethylamino)-2-oxo-2H-chromen-4-yl)acetate], the SI with HeLa cells (HeLa vs T. brucei) was greater than 125. The negative-log IC50 (pIC50) is less than 4.30 in the series on HeLa cells, less than 4.30 in the series on T98-G cells and 6.38 in series [1] (Table 3). Besides, in the series on T.b.b 427–221, the “fluorescence detected in live parasites” value was “Diffuse cytoplasmic fluorescent signal”.

Turning to `Nc1nc(N)nc(Nc2ccc([As]3SCC(CO)S3)cc2)n1` (stereo not drawn) [Melarsoprol, reference compound], the negative logarithm of the IC50 (pIC50) in series [1] is 8.70. Moreover, the “mortality rate due to drug-associated toxicity” value in series [2] is recorded as “three to ten”.

Regarding `CC1(C)CCC(=O)[C@@]2(C)OO[C@@H]3C[C@@]12CC[C@H]3O` [compound 1, merulin A], the figures for the pIC50 (in the series on HeLa cells (Figure 4); with T98-G cells; in series [1] (Table 3)) were less than 4.30, less than 4.30 and 5.40, respectively. Also, the “fluorescence detected in live parasites” value in the series on T.b.b 427–221 is “No fluorescence was detected”.

For `CC1(C)CCC(=O)[C@@]2(C)OO[C@H]3C[C@@]12CC[C@H]3OC(=O)c1cc2ccccc2oc1=O` [compound 14, (3S,4R,6aS,10aS)-7,7,10a-trimethyl-10-oxooctahydro-3H-3,6a-methanobenzo[c][1,2]dioxocin-4-yl 2-oxo-2H-chromene-3-carboxylate], the pIC50 was less than 4.30 in the series with HeLa cells (Figure 4); less than 4.30 in the series with T98-G cells; 6.38 in series [1] (Figure 4, bloodstream form).

For `CC1(C)CCC(=O)[C@@]2(C)OO[C@H]3C[C@@]12CC[C@H]3OC(=O)c1ccncc1` [compound 25, (3S,4R,6aS,10aS)-7,7,10a-trimethyl-10-oxooctahydro-3H-3,6a-methanobenzo[c][1,2]dioxocin-4-yl isonicotinate], the pIC50 is less than 4.30 in the series with HeLa cells (Figure 4); less than 4.30 in the series with T98-G cells; 6.02 in series [1] (Figure 4, bloodstream form).

For the compound `CC1(C)CCC(=O)[C@@]2(C)OO[C@H]3C[C@@]12CC[C@H]3OC(=O)c1ccc2c(c1)OCCO2` [compound 13, (3S,4R,6aS,10aS)-7,7,10a-trimethyl-10-oxooctahydro-3H-3,6a-methanobenzo[c][1,2]dioxocin-4-yl 2,3-dihydrobenzo[b][1,4]dioxine-6-carboxylate], the pIC50 is 4.55 with HeLa cells (Figure 4); less than 4.30 in the series with T98-G cells; 6.59 in series [1] (Figure 4, bloodstream form).

`CC1(C)CCC(=O)[C@@]2(C)OO[C@H]3C[C@@]12CC[C@H]3OC(=O)CN` [compound 29, (3S,4R,6aS,10aS)-7,7,10a-trimethyl-10-oxooctahydro-3H-3,6a-methanobenzo[c][1,2]dioxocin-4-yl 2-aminoacetate]: the pIC50 in the series on HeLa cells (Figure 4) is less than 4.30; with T98-G cells, less than 4.30; in series [1] (Figure 4, bloodstream form), less than 4.70.

For `CC(C)(C)OC(=O)N1CCC(CC(=O)O[C@@H]2CC[C@@]34C[C@@H]2OO[C@]3(C)C(=O)CCC4(C)C)CC1` [compound 27, tert-butyl-4-(2-oxo-2-(((3S,4R,6aS,10aS)-7,7,10a-trimethyl-10-oxooctahydro-3H-3,6a-methanobenzo[c][1,2]dioxocin-4-yl)oxy)ethyl)piperidine-1-carboxylate], the pIC50 in the series on HeLa cells (Figure 4) is 4.48; in the series with T98-G cells, less than 4.30; in series [1] (Figure 4, bloodstream form), 6.80.

Source of the values: PMC3459870, “Hit-to-Lead Development of the Chamigrane Endoperoxide Merulin A for the Treatment of African Sleeping Sickness” (PLoS ONE, 2012).
